From paper PMC4618646 (Pharmacology Research & Perspectives, 2015)
In brackets after ≈: the same amount, converted by molar mass. Where two headings read alike, the source gives them in different places.

Tests used:
[1] = phase II clinical trials for RA; ref Silverman et al. [2008]; cited from earlier work
[2] = ref Mikus et al. [2013]; cited from earlier work
[3] = type: physicochemical
human kinases = type: binding; details: 10 μmol/L single concentration screen; for 197 of 387 kinases
Adenosine A3 receptor [4] = target: T1, Adenosine A3 receptor (Homo sapiens, UniProt P0DMS8); assay: Adenosine A3 receptor; details: Radioligand binding Ki
T1 sequence (P0DMS8 1-318): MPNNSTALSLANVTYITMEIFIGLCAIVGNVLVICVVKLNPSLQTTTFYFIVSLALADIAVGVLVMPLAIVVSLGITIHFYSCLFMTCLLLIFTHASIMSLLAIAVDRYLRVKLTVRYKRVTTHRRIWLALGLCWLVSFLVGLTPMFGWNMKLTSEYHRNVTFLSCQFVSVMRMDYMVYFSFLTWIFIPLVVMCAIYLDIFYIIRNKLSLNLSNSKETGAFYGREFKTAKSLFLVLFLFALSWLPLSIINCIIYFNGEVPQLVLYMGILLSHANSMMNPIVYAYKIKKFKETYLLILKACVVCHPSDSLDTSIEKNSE

[5] = target: T2, Fatty acid amide hydrolase (FAAH) (Rattus norvegicus, UniProt P97612); assay: Fatty acid amide hydrolase; type: biochemical
T2 sequence (P97612 1-579): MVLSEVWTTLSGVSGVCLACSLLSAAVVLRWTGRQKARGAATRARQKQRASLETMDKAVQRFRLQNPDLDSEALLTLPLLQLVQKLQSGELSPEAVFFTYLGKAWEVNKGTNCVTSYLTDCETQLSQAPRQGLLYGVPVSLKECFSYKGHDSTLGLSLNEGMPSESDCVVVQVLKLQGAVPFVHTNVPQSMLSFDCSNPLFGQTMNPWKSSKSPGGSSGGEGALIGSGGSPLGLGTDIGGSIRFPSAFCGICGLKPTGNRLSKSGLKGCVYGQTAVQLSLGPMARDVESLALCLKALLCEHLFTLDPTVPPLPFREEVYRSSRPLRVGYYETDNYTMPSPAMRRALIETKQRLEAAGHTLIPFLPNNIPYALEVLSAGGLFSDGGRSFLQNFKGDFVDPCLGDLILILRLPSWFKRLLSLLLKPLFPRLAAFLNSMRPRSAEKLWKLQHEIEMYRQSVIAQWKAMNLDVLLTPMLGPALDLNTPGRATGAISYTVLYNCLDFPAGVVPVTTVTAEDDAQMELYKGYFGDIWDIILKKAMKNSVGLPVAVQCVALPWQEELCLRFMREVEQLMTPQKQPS

Lipoxygenase 5-LO = target: T3, Lipoxygenase 5-LO (Homo sapiens, UniProt P09917); assay: Lipoxygenase 5-LO; type: biochemical
T3 sequence (P09917 1-674): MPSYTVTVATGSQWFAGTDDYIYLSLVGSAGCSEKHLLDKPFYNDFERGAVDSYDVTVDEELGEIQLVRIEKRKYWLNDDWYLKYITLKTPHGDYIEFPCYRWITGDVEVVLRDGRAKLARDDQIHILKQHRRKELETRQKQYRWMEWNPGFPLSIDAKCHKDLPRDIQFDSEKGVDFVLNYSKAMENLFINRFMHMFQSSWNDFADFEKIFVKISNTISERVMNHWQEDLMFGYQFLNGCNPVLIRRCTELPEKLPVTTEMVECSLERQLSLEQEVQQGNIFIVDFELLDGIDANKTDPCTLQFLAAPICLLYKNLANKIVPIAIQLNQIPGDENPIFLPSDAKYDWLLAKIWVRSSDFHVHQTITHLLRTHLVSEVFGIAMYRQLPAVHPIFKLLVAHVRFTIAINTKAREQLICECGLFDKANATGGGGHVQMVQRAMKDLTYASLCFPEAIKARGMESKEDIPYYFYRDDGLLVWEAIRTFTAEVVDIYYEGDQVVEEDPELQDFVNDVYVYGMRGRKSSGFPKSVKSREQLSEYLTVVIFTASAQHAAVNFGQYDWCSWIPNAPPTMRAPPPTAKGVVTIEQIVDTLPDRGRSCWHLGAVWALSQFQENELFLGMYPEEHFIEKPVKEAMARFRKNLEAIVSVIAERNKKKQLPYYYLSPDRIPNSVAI

Cathepsin L = Cathepsin L (Homo sapiens, UniProt P07711); assay: Cathepsin L; type: biochemical
Cathepsin S = Cathepsin S (Homo sapiens, UniProt P25774); assay: Cathepsin S; type: biochemical
Phosphodiesterase PDE5 = Phosphodiesterase PDE5 (Homo sapiens, UniProt O76074); assay: Phosphodiesterase PDE5; type: biochemical
Transporter, monoamine = assay: Transporter, monoamine; type: binding; details: Vesicular monoamine transporter (rabbit)
[6] = target: T4, UDP glucuronosyltransferase, UGT1A1 (Homo sapiens, UniProt P22309); assay: UDP glucuronosyltransferase, UGT1A1; type: biochemical
T4 sequence (P22309 26-533): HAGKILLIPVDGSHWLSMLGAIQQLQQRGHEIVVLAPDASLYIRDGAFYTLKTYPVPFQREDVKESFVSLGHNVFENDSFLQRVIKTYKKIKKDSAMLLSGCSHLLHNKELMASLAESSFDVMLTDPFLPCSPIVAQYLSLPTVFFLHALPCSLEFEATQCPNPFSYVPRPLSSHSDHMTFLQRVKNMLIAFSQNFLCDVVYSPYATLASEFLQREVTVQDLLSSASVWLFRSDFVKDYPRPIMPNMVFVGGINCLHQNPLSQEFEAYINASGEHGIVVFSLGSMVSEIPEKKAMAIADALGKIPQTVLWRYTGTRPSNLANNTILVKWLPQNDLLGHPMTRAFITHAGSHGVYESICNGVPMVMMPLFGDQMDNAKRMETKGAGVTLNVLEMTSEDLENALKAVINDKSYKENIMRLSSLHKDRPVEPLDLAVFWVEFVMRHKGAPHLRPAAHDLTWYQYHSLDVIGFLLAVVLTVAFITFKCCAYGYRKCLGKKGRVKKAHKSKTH

[7] = test system: Purified human recombinant kinases; type: biochemical; details: median estimate of curve top showing <50% inhibition
Adenosine A3 receptor [8] = target: T1, Adenosine A3 receptor; type: biochemical
adenosine transporter = type: cell-based, human
[9] = test system: 314 diverse molecular targets; assay: Eurofins Panlabs broad in vitro panel, 10 μmol/L single concentration screen; details: at nine of 314 targets
KDR (VEGFR2) = assay: KDR inhibition measured in HUVEC cells; type: cell-based, human; details: from KDR IC50 data of ref McTigue et al. [2012]

Chain of Cathepsin L (P07711 114-333): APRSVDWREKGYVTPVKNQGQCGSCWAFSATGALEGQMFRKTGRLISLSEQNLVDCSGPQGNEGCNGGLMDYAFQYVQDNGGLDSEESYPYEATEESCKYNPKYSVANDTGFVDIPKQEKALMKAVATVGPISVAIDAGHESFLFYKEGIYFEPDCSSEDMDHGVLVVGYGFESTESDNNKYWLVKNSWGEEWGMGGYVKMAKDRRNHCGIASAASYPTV
Chain of Cathepsin S (P25774 115-331): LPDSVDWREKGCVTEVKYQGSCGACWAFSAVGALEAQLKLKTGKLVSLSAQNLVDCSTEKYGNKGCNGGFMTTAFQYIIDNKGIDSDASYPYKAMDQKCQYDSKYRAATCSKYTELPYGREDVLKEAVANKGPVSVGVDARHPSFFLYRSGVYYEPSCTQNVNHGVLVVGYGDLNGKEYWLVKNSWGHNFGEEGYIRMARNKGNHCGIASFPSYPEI

In the case of CNC(=O)[C@H]1O[C@@H](n2cnc3c(NCc4cccc(I)c4)ncnc32)[C@H](O)[C@@H]1O [CF101], the “adverse effects on blood pressure” value [1] is given as “no adverse effects on blood pressure”.
For COc1ccc(C(=O)Nc2nc3ccccc3c(NCc3ccccc3)c2C#N)cc1 [SSR161421], the “effects in animal models of asthma” value [2] is given as “beneficial effects”.
For COc1cc(Nc2ncc(F)c(Nc3ccc4c(n3)NC(=O)C(C)(C)O4)n2)cc(OC)c1OC [R406], the solubility ([3]; solubility in DMSO, 100% DMSO) was about 140 mM (≈ 65.9 mg/mL), the solubility ([3]; solubility in phosphate-buffered saline, physiological pH) was 0.0002 mM (≈ 9.41e-05 mg/mL) and the “inhibition of the qPCR signal” value (human kinases) was at least 80%. For the same molecule, the Ki (Adenosine A3 receptor [4]) was 17 nM, the Mode of action ([5]; Fatty acid amide hydrolase (rat)) was “Inhibitor” and the IC50 ([5]; Radioligand binding or enzyme activity IC50, Fatty acid amide hydrolase (rat)) was 1510 nM. For the same molecule, the Mode of action (Lipoxygenase 5-LO; 5-Lipoxygenase (human)) was “Inhibitor”, the IC50 (Lipoxygenase 5-LO; Radioligand binding or enzyme activity IC50, 5-Lipoxygenase (human)) was 5500 nM and the Mode of action (Cathepsin L; Cathepsin L (human)) was “Inhibitor”. The IC50 (Cathepsin L; Radioligand binding or enzyme activity IC50, Cathepsin L (human)) was 5930 nM, the Mode of action (Cathepsin S; Cathepsin S (human)) was “Inhibitor” and the IC50 (Cathepsin S; Radioligand binding or enzyme activity IC50, Cathepsin S (human)) was 11900 nM. The Mode of action (Phosphodiesterase PDE5; Phosphodiesterase PDE5 (human)) was “Inhibitor”, the IC50 (Phosphodiesterase PDE5; Radioligand binding or enzyme activity IC50, Phosphodiesterase PDE5 (human)) was 308 nM and the Ki (Transporter, monoamine; read-out: Radioligand binding Ki) was 1630 nM. For the same molecule, the IC50 (Transporter, monoamine; read-out: Radioligand binding or enzyme activity IC50) was 1960 nM, the IC50 ([6]; Radioligand binding or enzyme activity IC50, UDP glucuronosyltransferase UGT1A1 (human)) was 143 nM and the Mode of action ([6]; UDP glucuronosyltransferase UGT1A1 (human)) was “Inhibitor”. For the same molecule, the “activity in the remaining 19 of 139 kinase activity assays” value [7] was “inactive”, the Mode of action (Adenosine A3 receptor [8]; Adenosine A3 receptor (human)) was “Antagonist” and the “effect of R406 on its own on GTPγS binding” value (Adenosine A3 receptor [8]; concentrations up to 10 μmol/L, absence of agonist) was “no effect”. The Mode of action (adenosine transporter; Adenosine transporter (human)) was “Inhibitor”, the IC50 (adenosine transporter; read-out: IC50, inhibition of adenosine uptake, U937 cells, [^3H]adenosine) was 100 nM and the inhibition [9] was over 50%.
In the case of COc1cc2c(Oc3ccc4[nH]c(C)cc4c3F)ncnc2cc1OCCCN1CCCC1 [cediranib], the “fold more potent at KDR than sunitinib” value (KDR (VEGFR2)) is reported as about 31 fold.
